Measured values published in US10294202B2, “Pyrrolidinones as herbicides” (FMC Corporation, priority 2013, dated 2019).

Columns and labels:
galium = test: Test C pre-/postemergence herbicide test; format: in vivo, Galium aparine
In short: (§1)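 Plants grown and held in a greenhouse for 13 to 15 days post-spray, then rated 0–100 by visual comparison with controls. Pre treatments targeted seeds in loam and sand; post treatments targeted 1- to 4-leaf plants in peat-based potting medium.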

morningglory = test: Test C pre-/postemergence herbicide test; format: in vivo, Ipomoea coccinea
In short: as §1

wheat = test: Test A pre-/postemergence herbicide test; format: in vivo, Triticum aestivum
In short: (§2)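 Approximately 10 days after treatment in the greenhouse, plants were compared with untreated controls and given a 0–100 visual injury rating. Applications: preemergence directed soil spray; postemergence on 2–10 cm plants at the one- to two-leaf stage.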

pigweed = test: Test C pre-/postemergence herbicide test; format: in vivo, Amaranthus retroflexus
In short: as §1

giant foxtail = test: Test A pre-/postemergence herbicide test; format: in vivo, Setaria faberii
In short: as §2

lambsquarters = test: Test C pre-/postemergence herbicide test; format: in vivo, Chenopodium album
In short: as §1

wheat (winter wheat) = test: Test C pre-/postemergence herbicide test; format: in vivo, Triticum aestivum
In short: as §1

barnyardgrass = test: Test C pre-/postemergence herbicide test; format: in vivo, Echinochloa crus-galli
In short: as §1

foxtail, giant = test: Test C pre-/postemergence herbicide test; format: in vivo, Setaria faberii
In short: as §1

johnsongrass = test: Test C pre-/postemergence herbicide test; format: in vivo, Sorghum halepense
In short: as §1

[1] = Postemergence, 31 g ai/ha, scale 0 (no effect) to 100 (complete control)
[2] = Postemergence, 62 g ai/ha, scale 0 to 100 (0 no effect, 100 complete control)
[3] = Postemergence, 125 g ai/ha, scale 0 to 100 (0 no effect, 100 complete control)
[4] = Postemergence, 250 g ai/ha, scale 0 to 100 (0 no effect, 100 complete control)
[5] = Preemergence, 31 g ai/ha, scale 0 to 100, 0 is no effect and 100 is complete control
[6] = Preemergence, 62 g ai/ha, scale 0 to 100
[7] = Preemergence, 125 g ai/ha, scale 0 to 100 (0 no effect, 100 complete control)
[8] = Postemergence, 125 g ai/ha, 0 to 100 scale, 0 no effect, 100 complete control
[9] = Postemergence, 500 g ai/ha, 0 to 100 scale (0 no effect, 100 complete control)
[10] = Preemergence, 125 g ai/ha, visual rating on 0 to 100 scale (0 no effect, 100 complete control)
[11] = preemergence, 500 g ai/ha, 0 to 100 scale
[12] = Preemergence, 62 g ai/ha, scale 0 to 100 (0 no effect, 100 complete control)
[13] = Preemergence, 125 g ai/ha, scale 0 to 100
[14] = Postemergence, 31 g ai/ha, scale 0 to 100 (0 no effect, 100 complete control)
[15] = Postemergence, 62 g ai/ha, scale 0 (no effect) to 100 (complete control)
[16] = Postemergence, 125 g ai/ha, visual rating on 0 to 100 scale (0 no effect, 100 complete control), approx. 10 days

O=C1NCC(c2ccc(F)c(C(F)(F)F)c2)C1C(=O)Nc1ccccc1F (racemic) [Compound 76]
45: Plant response rating, Wheat (wheat (winter wheat); [6]) | Plant response rating, Johnsongrass (johnsongrass; [6]) | Plant response rating, Johnsongrass (johnsongrass; [7])
98: Plant response rating (scale of 0 to 100; 0 is no effect, 100 is complete control), Barnyardgrass (barnyardgrass; Preemergence, 250 g ai/ha) | Plant response rating (scale of 0 to 100), Foxtail, Giant (foxtail, giant; Preemergence, 250 g ai/ha)
95: Plant response rating, Barnyardgrass (barnyardgrass; [7]) | Plant response rating, Foxtail, Giant (foxtail, giant; [6]) | Plant response rating, Foxtail, Giant (foxtail, giant; [7])
85: Plant response rating (scale of 0 to 100), Galium (galium; Preemergence, 250 g ai/ha) | Plant response rating, Barnyardgrass (barnyardgrass; [3]) | Plant response rating, Barnyardgrass (barnyardgrass; [6])
10: Plant response rating, Morningglory (morningglory; [1]) | Plant response rating, Morningglory (morningglory; [2]) | Plant response rating, Pigweed (pigweed; [2]) | Plant response rating, Pigweed (pigweed; [3])
70: Plant response rating, Wheat (wheat (winter wheat); [7]) | Plant response rating, Foxtail, Giant (foxtail, giant; [4])
50: Plant response rating, Galium (galium; [2]) | Plant response rating, Galium (galium; [3]) | Plant response rating, Wheat (wheat; [8]) | Plant response rating, Lambsquarters (lambsquarters; [4])
0: Morningglory plant response rating (morningglory; [5]) | Plant response rating, Morningglory (morningglory; [6]) | Wheat plant response rating (wheat; [10]) | Plant response rating, Wheat (wheat; [11]) | Plant response rating, Pigweed (pigweed; [6]) | Plant response rating, Pigweed (pigweed; [7]) | Plant response rating, Lambsquarters (lambsquarters; [6]) | Plant response rating, Lambsquarters (lambsquarters; [7]) | Plant response rating, Wheat (wheat (winter wheat); [1]) | Plant response rating, Wheat (wheat (winter wheat); [2]) | Plant response rating, Wheat (wheat (winter wheat); [3]) | Plant response rating, Barnyardgrass (barnyardgrass; [1]) | Plant response rating, Foxtail, Giant (foxtail, giant; [1]) | Plant response rating, Johnsongrass (johnsongrass; [1]) | Plant response rating, Johnsongrass (johnsongrass; [2]) | Plant response rating, Johnsongrass (johnsongrass; [3]) | Plant response rating, Johnsongrass (johnsongrass; [4])
90: Foxtail, Giant plant response rating (giant foxtail; [10]) | Plant response rating, Foxtail, Giant (giant foxtail; [11]) | Plant response rating, Barnyardgrass (barnyardgrass; [4]) | Foxtail, Giant plant response rating (foxtail, giant; [5])
20: Plant response rating, Foxtail, Giant (foxtail, giant; [3]) | Johnsongrass plant response rating (johnsongrass; [5])
65: Plant response rating, Galium (galium; [4])
5: Galium plant response rating (galium; [5]) | Plant response rating, Pigweed (pigweed; [1]) | Plant response rating, Wheat (wheat (winter wheat); [4]) | Plant response rating, Foxtail, Giant (foxtail, giant; [2])
30: Plant response rating, Galium (galium; [1]) | Plant response rating, Pigweed (pigweed; [4])
40: Plant response rating, Morningglory (morningglory; [3]) | Plant response rating, Morningglory (morningglory; [4]) | Plant response rating, Morningglory (morningglory; [7]) | Plant response rating (scale of 0 to 100), Morningglory (morningglory; Preemergence, 250 g ai/ha) | Plant response rating (scale of 0 to 100), Pigweed (pigweed; Preemergence, 250 g ai/ha) | Plant response rating, Lambsquarters (lambsquarters; [1]) | Plant response rating, Lambsquarters (lambsquarters; [2]) | Plant response rating, Lambsquarters (lambsquarters; [3])
35: Plant response rating (scale of 0 to 100), Lambsquarters (lambsquarters; Preemergence, 250 g ai/ha) | Wheat plant response rating (wheat (winter wheat); [5]) | Plant response rating, Barnyardgrass (barnyardgrass; [2])
80: Plant response rating, Foxtail, Giant (giant foxtail; [8]) | Plant response rating, Foxtail, Giant (giant foxtail; [9]) | Plant response rating (scale of 0 to 100), Wheat (wheat (winter wheat); Preemergence, 250 g ai/ha) | Barnyardgrass plant response rating (barnyardgrass; [5]) | Plant response rating (scale of 0 to 100), Johnsongrass (johnsongrass; Preemergence, 250 g ai/ha)
60: Plant response rating, Wheat (wheat; [9])

O=C1NCC(c2cccc(C(F)(F)F)c2)C1C(=O)Nc1ccccc1Cl (stereo not shown) [Compound 312]
5: Plant response rating, Galium (galium; [13])
55: Plant response rating (scale of 0 to 100), Morningglory (morningglory; Preemergence, 250 g ai/ha) | Plant response rating (scale of 0 to 100), Pigweed (pigweed; Preemergence, 250 g ai/ha) | Plant response rating, Lambsquarters (lambsquarters; [4]) | Plant response rating, Foxtail, Giant (foxtail, giant; [14])
90: Galium plant response rating (galium; [5]) | Plant response rating, Foxtail, Giant (giant foxtail; [9]) | Plant response rating, Foxtail, Giant (giant foxtail; Preemergence, 125 g ai/ha, 0 to 100 scale where 0 is no effect and 100 is complete control) | Foxtail, Giant plant response rating (giant foxtail; Preemergence, 500 g ai/ha, visual rating on 0 to 100 scale (0 no effect, 100 complete control)) | Barnyardgrass plant response rating (barnyardgrass; [12]) | Plant response rating, Barnyardgrass (barnyardgrass; [7]) | Foxtail, Giant plant response rating (foxtail, giant; [5]) | Foxtail, Giant plant response rating (foxtail, giant; [12]) | Plant response rating, Foxtail, Giant (foxtail, giant; [13])
65: Plant response rating, Lambsquarters (lambsquarters; [14]) | Plant response rating (scale of 0 to 100), Wheat (wheat (winter wheat); Preemergence, 250 g ai/ha)
35: Morningglory plant response rating (morningglory; [12])
75: Plant response rating, Lambsquarters (lambsquarters; [15]) | Plant response rating, Barnyardgrass (barnyardgrass; [4]) | Plant response rating, Foxtail, Giant (foxtail, giant; [15]) | Plant response rating, Foxtail, Giant (foxtail, giant; [3])
80: Plant response rating (scale of 0 to 100), Galium (galium; Preemergence, 250 g ai/ha) | Plant response rating, Foxtail, Giant (giant foxtail; [16]) | Plant response rating, Foxtail, Giant (foxtail, giant; [4]) | Plant response rating, Johnsongrass (johnsongrass; [13])
45: Plant response rating, Pigweed (pigweed; [4]) | Plant response rating, Pigweed (pigweed; [13])
50: Plant response rating, Lambsquarters (lambsquarters; [13]) | Johnsongrass plant response rating (johnsongrass; [12])
40: Plant response rating, Morningglory (morningglory; [13]) | Plant response rating, Wheat (wheat; [16]) | Pigweed plant response rating (pigweed; [12]) | Plant response rating, Barnyardgrass (barnyardgrass; [14])
20: Plant response rating, Morningglory (morningglory; [4]) | Plant response rating, Pigweed (pigweed; [15])
70: Plant response rating, Wheat (wheat; [9]) | Plant response rating, Barnyardgrass (barnyardgrass; [15]) | Plant response rating, Barnyardgrass (barnyardgrass; [3])
60: Plant response rating (scale of 0 to 100), Lambsquarters (lambsquarters; Preemergence, 250 g ai/ha) | Plant response rating, Wheat (wheat (winter wheat); [13])
0: Galium plant response rating (galium; [12]) | Plant response rating, Morningglory (morningglory; [14]) | Plant response rating, Morningglory (morningglory; [15]) | Morningglory plant response rating (morningglory; [5]) | Lambsquarters plant response rating (lambsquarters; [5]) | Lambsquarters plant response rating (lambsquarters; [12]) | Plant response rating, Wheat (wheat (winter wheat); [14]) | Plant response rating, Wheat (wheat (winter wheat); [15]) | Plant response rating, Wheat (wheat (winter wheat); [3]) | Plant response rating, Wheat (wheat (winter wheat); [4]) | Plant response rating, Johnsongrass (johnsongrass; [14]) | Plant response rating, Johnsongrass (johnsongrass; [15]) | Plant response rating, Johnsongrass (johnsongrass; [4])
30: Wheat plant response rating (wheat (winter wheat); [12]) | Johnsongrass plant response rating (johnsongrass; [5])
10: Plant response rating, Morningglory (morningglory; [3]) | Plant response rating, Pigweed (pigweed; [14])
25: Plant response rating, Pigweed (pigweed; [3]) | Pigweed plant response rating (pigweed; [5]) | Plant response rating, Johnsongrass (johnsongrass; [3])
85: Barnyardgrass plant response rating (barnyardgrass; [5]) | Plant response rating (scale of 0 to 100), Johnsongrass (johnsongrass; Preemergence, 250 g ai/ha)
95: Plant response rating, Lambsquarters (lambsquarters; [3]) | Plant response rating (scale of 0 to 100; 0 is no effect, 100 is complete control), Barnyardgrass (barnyardgrass; Preemergence, 250 g ai/ha) | Plant response rating (scale of 0 to 100), Foxtail, Giant (foxtail, giant; Preemergence, 250 g ai/ha)
